Experimental data reported in article PMC5947317 (ACS chemical biology, 2017).
Like-named read-outs stand apart in the source and are kept apart here.

Experiments:
[1] = biological target: T1, UCHL1 (Homo sapiens, UniProt P09936); assay: Ub-AMC assay with recombinant UCHL1; assay type: biochemical; conditions: for difference in IC50 value (selectivity for UCHL1): versus UCHL3, UCHL5, USP2 catalytic core
T1 sequence (P09936 1-223): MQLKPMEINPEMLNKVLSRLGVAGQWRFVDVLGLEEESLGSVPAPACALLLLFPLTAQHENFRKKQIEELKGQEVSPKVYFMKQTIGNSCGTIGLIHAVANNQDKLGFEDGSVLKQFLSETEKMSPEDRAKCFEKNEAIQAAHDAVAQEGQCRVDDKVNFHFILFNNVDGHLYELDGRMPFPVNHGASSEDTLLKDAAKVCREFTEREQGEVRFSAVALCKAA

[2] = biological target: T2, UCHL3 (Homo sapiens, UniProt P15374); assay: Ub-AMC selectivity assay, UCHL3; assay type: biochemical; conditions: 114 μM
T2 sequence (P15374 1-230): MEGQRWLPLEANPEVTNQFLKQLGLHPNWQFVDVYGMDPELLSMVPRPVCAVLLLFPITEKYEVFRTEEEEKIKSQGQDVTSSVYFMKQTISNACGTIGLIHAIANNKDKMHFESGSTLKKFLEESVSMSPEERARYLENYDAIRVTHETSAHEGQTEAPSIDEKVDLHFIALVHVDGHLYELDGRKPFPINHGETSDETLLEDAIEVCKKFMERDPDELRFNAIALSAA

[3] = biological target: T1, UCHL1; assay: Rapid dilution reversibility assay; assay type: biochemical; conditions: incubated at ten times IC50, diluted 100-fold; normalized to DMSO
[4] = biological target: T3, full length USP15 (Homo sapiens, UniProt Q9Y4E8); assay: Ub-AMC selectivity assay, full length USP15; assay type: biochemical; conditions: 114 μM
T3 sequence (Q9Y4E8 1-981): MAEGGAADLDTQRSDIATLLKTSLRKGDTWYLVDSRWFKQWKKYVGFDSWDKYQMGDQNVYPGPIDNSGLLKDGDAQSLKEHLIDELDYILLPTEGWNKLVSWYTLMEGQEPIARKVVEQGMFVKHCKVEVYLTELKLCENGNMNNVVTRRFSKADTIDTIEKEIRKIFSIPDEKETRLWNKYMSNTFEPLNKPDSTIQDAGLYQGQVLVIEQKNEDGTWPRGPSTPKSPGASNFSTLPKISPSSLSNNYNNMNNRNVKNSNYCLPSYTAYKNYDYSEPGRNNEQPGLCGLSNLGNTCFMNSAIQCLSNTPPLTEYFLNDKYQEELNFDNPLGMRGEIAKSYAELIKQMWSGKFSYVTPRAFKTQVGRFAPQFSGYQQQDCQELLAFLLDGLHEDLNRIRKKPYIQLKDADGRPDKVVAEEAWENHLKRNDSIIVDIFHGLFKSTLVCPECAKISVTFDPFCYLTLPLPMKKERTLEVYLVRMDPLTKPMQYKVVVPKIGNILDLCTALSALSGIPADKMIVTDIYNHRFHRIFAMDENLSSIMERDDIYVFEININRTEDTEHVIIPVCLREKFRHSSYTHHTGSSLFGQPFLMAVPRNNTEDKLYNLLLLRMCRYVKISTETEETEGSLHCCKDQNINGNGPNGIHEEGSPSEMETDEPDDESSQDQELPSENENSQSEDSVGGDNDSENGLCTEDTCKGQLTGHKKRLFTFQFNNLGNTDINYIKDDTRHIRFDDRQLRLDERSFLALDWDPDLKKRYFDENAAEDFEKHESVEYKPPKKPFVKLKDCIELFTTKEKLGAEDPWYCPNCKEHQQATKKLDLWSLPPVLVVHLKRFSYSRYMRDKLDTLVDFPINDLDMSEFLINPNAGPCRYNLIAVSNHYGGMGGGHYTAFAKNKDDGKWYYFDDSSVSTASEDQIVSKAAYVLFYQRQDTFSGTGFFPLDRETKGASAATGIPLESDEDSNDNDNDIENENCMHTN

[5] = biological target: T4, HA-UCHL1 (Homo sapiens, UniProt P09936); assay: AlphaLISA DUB assay miniaturized to 1536-well format; assay type: biochemical
T4 sequence (P09936 1-223): T1 sequence (P09936 1-223)

[6] = biological target: T5, USP2 catalytic core (Homo sapiens, UniProt O75604); assay: Ub-AMC selectivity assay, USP2 catalytic core; assay type: biochemical; conditions: 114 μM
T5 sequence (O75604 267-599 limits assumed): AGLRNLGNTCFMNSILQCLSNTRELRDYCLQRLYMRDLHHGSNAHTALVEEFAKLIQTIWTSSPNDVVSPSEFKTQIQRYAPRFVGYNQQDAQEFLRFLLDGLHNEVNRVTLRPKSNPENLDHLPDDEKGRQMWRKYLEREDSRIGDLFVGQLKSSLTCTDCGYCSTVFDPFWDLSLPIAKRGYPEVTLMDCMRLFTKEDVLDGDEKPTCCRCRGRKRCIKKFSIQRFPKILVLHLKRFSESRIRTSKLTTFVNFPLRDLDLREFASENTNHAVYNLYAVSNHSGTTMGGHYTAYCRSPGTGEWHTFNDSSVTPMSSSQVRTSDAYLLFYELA

[7] = biological target: T6, UCHL5 (Homo sapiens, UniProt Q9Y5K5); assay: Ub-AMC selectivity assay, UCHL5; assay type: biochemical; conditions: 114 μM
T6 sequence (Q9Y5K5 1-329): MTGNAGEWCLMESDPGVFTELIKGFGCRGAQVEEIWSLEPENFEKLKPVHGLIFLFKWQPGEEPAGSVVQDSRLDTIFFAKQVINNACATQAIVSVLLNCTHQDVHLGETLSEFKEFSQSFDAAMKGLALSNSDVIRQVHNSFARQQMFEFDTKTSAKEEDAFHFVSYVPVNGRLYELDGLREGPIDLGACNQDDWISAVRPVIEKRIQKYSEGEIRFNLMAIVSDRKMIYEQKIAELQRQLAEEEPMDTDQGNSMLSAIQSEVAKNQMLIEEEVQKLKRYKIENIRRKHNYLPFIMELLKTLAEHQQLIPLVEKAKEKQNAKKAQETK

[8] = tested on: UCHL1; conditions: cited from earlier work
[9] = biological target: T4, HA-UCHL1; assay: Cell lysate AlphaLISA DUB assay, 384-well format; assay type: biochemical; conditions: 384-well plate format; dose-response
[10] = biological target: T4, HA-UCHL1; conditions: HEK293T cell lysates; Western blot, anti-HA
[11] = biological target: T7, endogenous UCHL1 (Homo sapiens, UniProt P09936); assay type: biochemical; conditions: 100 μM and 20 μM of compound; HEK293T cell lysates
T7 sequence (P09936 1-223): T1 sequence (P09936 1-223)

SMILES: COC(=O)C1=CO[C@@H](C)[C@@H]2CN3CCc4c([nH]c5ccc(OC)cc45)[C@@H]3C[C@H]12 [(-)-aricine]
- IC50 ([1]; Ub-AMC as substrate): 47.7 µM
- inhibition at highest inhibitor concentration [2]: no significant inhibition
- recovered UCHL1 activity after rapid dilution [3]: > 80%
- inhibition at highest inhibitor concentration [4]: no significant inhibition
- IC50 ([5]; read-out: IC50 determined in the qHTS, qHTS, data not shown): 38.5 µM
- inhibition at highest inhibitor concentration [6]: no significant inhibition
- inhibition at highest inhibitor concentration [7]: no significant inhibition

SMILES: Cc1cnc(-c2ccccc2C(C)C)nc1NCc1ccc(-n2ccnn2)cc1 [ML323]
- activity against UCHL1 [8]: inactive
- inhibition in the AlphaLISA assay [9]: no obvious inhibition
- inhibition of UCHL1 labeling by biotin-UbVMe [10]: did not inhibit the labeling

SMILES: CCN1C(=O)C=CC1=O [NEM, N-ethylmaleimide, reference compound]
- recovered UCHL1 activity after rapid dilution [3]: 3.9%

SMILES: CC(=O)Oc1c2c(c(CC=C(C)C)c3c1C(=O)C1=C[C@@H]4CC5C(C)(C)OC(C/C=C(\C)C(=O)O)(C4=O)[C@@]15O3)OC(C)(CCC=C(C)C)C=C2 (some centres unmarked) [acetyl isogambogic acid]
- selectivity among UCHs and USPs tested ([1]; UCHL1 versus UCHL3, UCHL5, USP2 catalytic core, USP15, Ub-AMC): more promiscuous inhibitors
- inhibition of endogenous UCHL1 labeling by HA-UbVMe [11]: stronger inhibition
- recovered UCHL1 activity after rapid dilution [3]: > 80%
- IC50 [5]: 30.6 µM

SMILES: CC1=C(O)C(=O)C=C2C1=CC=C1[C@@]2(C)CC[C@@]2(C)[C@@H]3C[C@](C)(C(=O)O)CC[C@]3(C)CC[C@]12C [celastrol]
- difference in IC50 value (selectivity for UCHL1) ([1]; USP15, Ub-AMC): ≥ 4 fold
- inhibition of endogenous UCHL1 labeling by HA-UbVMe [11]: stronger inhibition
- recovered UCHL1 activity after rapid dilution [3]: > 80%
- IC50 [5]: 4.46 µM

SMILES: O=c1c2cc(O)c(O)cc2oc2cc(O)c([C@@H]3O[C@H](CO)[C@@H](O)[C@H](O)[C@H]3O)c(O)c12 [mangiferin]
- IC50 [1]: 8.9 µM
- difference in IC50 value (selectivity for UCHL1) ([1]; USP15, Ub-AMC): ≥ 4 fold
- inhibition of endogenous UCHL1 labeling by HA-UbVMe [11]: stronger inhibition
- recovered UCHL1 activity after rapid dilution [3]: > 80%
- IC50 [5]: 1.12 µM

SMILES: CO[C@H]1/C=C/O[C@@]2(C)Oc3c(C)c(O)c4c(O)c(c(/C=N/N5CCN(C)CC5)c(O)c4c3C2=O)NC(=O)/C(C)=C\C=C\[C@H](C)[C@H](O)[C@@H](C)[C@@H](O)[C@@H](C)[C@H](OC(C)=O)[C@@H]1C [rifampicin, reference compound]
- IC50 [1]: 19.5 µM
- IC50 [5]: 38.5 µM
